Values joined by “and” are separate entries in the source; they are usually repeats but may differ in a detail not shown here. Equal values may be shown once.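 Grown in 96-well plates, cells were treated for 48 hours with each compound at five concentrations. Insufficient inhibition: endpoint recorded as highest concentration tested. Here, GI50 denotes the concentration required for 50% inhibition of growth. TGI marks complete inhibition of growth.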
Tests used:
Test in all cases: NCI anticancer screen, dose series, 48 h
MOLT-4 leukemia = system: MOLT-4 leukemia
A498 renal = system: A498 renal
IGROV1 ovarian = system: IGROV1 ovarian
SNB-75 CNS = system: SNB-75 CNS
EKVX NSCLC = system: EKVX NSCLC
HOP-92 NSCLC = system: HOP-92 NSCLC
K-562 leukemia = system: K-562 leukemia
SF-539 CNS = system: SF-539 CNS
HL-60(TB) leukemia = system: HL-60(TB) leukemia
M14 melanoma = system: M14 melanoma
TK-10 renal = system: TK-10 renal

Row | Structure (SMILES) | TGI (MOLT-4 leukemia) | TGI (A498 renal) | TGI (IGROV1 ovarian) | TGI (SNB-75 CNS) | TGI (EKVX NSCLC) | TGI (HOP-92 NSCLC) | TGI (K-562 leukemia) | TGI (SF-539 CNS) | TGI (HL-60(TB) leukemia) | TGI (M14 melanoma) | TGI (TK-10 renal) | GI50 (MOLT-4 leukemia) | GI50 (SNB-75 CNS) | GI50 (TK-10 renal) | GI50 (K-562 leukemia) | GI50 (HL-60(TB) leukemia) | GI50 (A498 renal) | GI50 (HOP-92 NSCLC) | GI50 (M14 melanoma)
1 | c1ccc2c(c1)SP1Sc3ccccc3P21 (stereo not given) | > 100 µM | > 100 µM | > 100 µM | > 100 µM | > 100 µM | > 100 µM | > 100 µM | > 100 µM | > 100 µM |  |  |  |  |  |  |  |  |  | 
2 | CC(=O)OC1CC(OC2C(O)CC(OC3C(O)CC(OC4CCC5(C)C(CCC6C5CCC5(C)C(C7=CC(=O)OC7)CCC65O)C4)OC3C)OC2C)OC(C)C1OC1OC(CO)C(O)C(O)C1O (stereo not given) | > 100 µM | 0.131 µM | 0.289 µM | 0.249 µM | 0.0536 µM | 0.234 µM | > 100 µM | 0.0352 µM | 0.0827 µM | 0.188 µM | 0.149 µM |  |  |  |  |  |  |  | 
3 | O=C1C(c2c(O)[nH]c3ccc(Cl)cc23)=Nc2ccccc21 | > 100 µM | 13.1 µM | 19.3 µM | 15.5 µM | > 53.1 µM | 29.5 µM | > 100 µM | 17.9 µM | > 100 µM | > 100 µM | 18.8 µM |  |  |  |  |  |  |  | 
4 | COCCNCc1ccc(-c2cc3nccc(Oc4ccc(NC(=O)C5(C(=O)Nc6ccc(F)cc6)CC5)cc4F)c3s2)nc1 | 4.26 µM |  |  | 2.26 µM |  |  | 1.83 µM |  | 5.12 µM |  | 4.43 µM | 1.46 µM | 1.03 µM | 2.21 µM | 0.252 µM | 2.29 µM |  |  | 
5 | COC(=O)c1sc2c(c1C(=O)OC)C(=NC(C)(C)C)SC2=NC(C)(C)C | 31.8 µM | 32.5 µM | 36.2 µM |  | 34.7 µM | 35.4 µM | 43.3 µM | 34.1 µM | 28.6 µM | 32.2 µM | 33.2 µM |  |  |  |  |  |  |  | 
6 | COc1cc(NCCC(=O)O)c2ncccc2c1 | > 100 µM | > 100 µM | > 100 µM |  | > 100 µM | > 100 µM | > 100 µM |  | > 100 µM | > 100 µM | > 100 µM |  |  |  |  |  |  |  | 
7 | Cc1ccc(C(C)C)c(OCC(=O)N/N=C/c2c[nH]c3ccc(Br)cc23)c1 | 14.2 µM | 15.5 µM | 13.1 µM | 5.95 µM | 11.1 µM | 27.8 µM | 11.4 µM | 4 µM | 7.42 µM | 4.63 µM | 9.15 µM |  |  |  |  |  |  |  | 
8 | Clc1cc(OCc2nn3c(Cc4ccccc4)nnc3s2)c(Cl)cc1OCc1nn2c(Cc3ccccc3)nnc2s1 | 19.8 µM | 88.5 µM | > 100 µM | 9.97 µM | > 100 µM | 61.2 µM | 24.2 µM | > 100 µM | > 100 µM | > 100 µM | > 100 µM |  |  |  |  |  |  |  | 
9 | CN(C)c1cccc(OC(=O)NCCCl)c1 | > 100 µM | 93.6 µM and > 100 µM | > 100 µM | > 100 µM | > 100 µM | > 100 µM | > 100 µM | > 100 µM | > 100 µM |  |  |  | > 100 µM |  |  |  | 13.9 µM | > 100 µM | 
10 | O=C(Sc1n[nH]c(=O)[nH]c1=O)c1cccc2nc3ccccc3nc12 | > 100 µM | > 100 µM | > 100 µM |  | > 100 µM | > 100 µM | > 100 µM | > 100 µM | > 100 µM | > 100 µM | > 100 µM |  |  |  |  |  |  |  | 
11 | Cc1cccc2c1Sc1ccccc1C2NC(=O)CN(C)C (stereo not given) | > 100 µM |  | > 100 µM | 86.7 µM | > 100 µM |  | > 100 µM | > 100 µM | > 100 µM | > 100 µM | > 100 µM |  |  |  |  |  |  |  | 
12 | Nc1ccc(Cn2ccc3c4c(N)nc(N)nc4ccc32)cc1 | > 51.7 µM |  | 18.7 µM | 12.5 µM | 23.1 µM | 8.7 µM | 2.44 µM | 4.15 µM | 1.37 µM | 6.45 µM | 13.6 µM |  |  |  |  |  |  |  | 
13 | Cc1ccc(Nc2nc(=O)c3c([nH]c4ccccc43)s2)cc1 | > 100 µM | 37.4 µM | 35.1 µM | 31.6 µM | 64.2 µM | 25.6 µM | > 100 µM | 31.6 µM | 36.5 µM | 18.1 µM | 23.9 µM |  |  |  |  |  |  |  | 
14 | c1ccc2c(c1)SCCc1cn[nH]c1-2 | > 100 µM | > 100 µM | > 100 µM | > 100 µM | > 100 µM | > 100 µM | > 100 µM | > 100 µM | > 100 µM |  |  |  |  |  |  |  |  |  | 
15 | CO/C=C1\OC(=O)C=C1OC | > 100 µM | > 100 µM | > 100 µM | > 100 µM | > 100 µM | > 100 µM | > 100 µM | > 100 µM | > 100 µM |  |  |  |  |  |  |  |  |  | 
16 | NNC(=O)c1cc([N+](=O)[O-])ccc1NC(=O)C12CC3CC(CC(C3)C1)C2 | > 100 µM |  | 8.53 µM |  | > 100 µM | 51.7 µM | > 100 µM | 50.1 µM | 22.1 µM | > 100 µM | 59.5 µM |  |  |  |  |  |  |  | 
17 | c1csc(-c2ccc(CNc3c4ccccc4nc4ccccc34)cc2)c1 | 3.74 µM | 2.52 µM |  | 6.58 µM |  | 2.81 µM |  |  | 3.28 µM | 3.4 µM | 3.28 µM | 1.32 µM | 2.24 µM | 1.76 µM |  | 1.45 µM | 1.22 µM | 1.26 µM | 1.75 µM
